Measurements as given in patent publication US9157069B2, “Method of producing pancreatic hormone-producing cells” (Takeda Pharmaceutical Company Limited, priority 2010, dated 2015).
“Also recorded” adds a separate entry of the source.

Tests used:
human iPS cells [1] = assay: Endoderm induction of human iPS cells, SOX17 gene expression by quantitative RT-PCR; format: cell-based; details: GSK3 inhibitor (CHIR99021 3 μM or BIO 0.5 μM) with activin A 100 ng/ml, after 2 days in CHIR99021 3 μM; from day 4 of culture
Procedure: To the human iPS cells sedimented in the centrifuge tube, 0.25% trypsin-1 mM EDTA solution (GIBCO) was added, and allowed to dissociate until they form singulated cells. Then, human iPS cells dispersed in a medium were seeded at a density of 15×10^4 cells per one 100 mm dish coated with BD Matrigel (Nippon Becton Dickinson Company, Ltd.), and cultured at 37° C., 5% CO2 for 1 day. The 100 mm dish used was one coated with BD Matrigel diluted 40-fold with serum-free DMEM/F12 medium (Invitrogen), at room temperature for 3 hr or longer. As a medium for dispersion and seeding was a medium for primate ES cell (ReproCELL Inc.) added with 10 μM Y-27632 (Wako Pure Chemical Industries, Ltd.). […]
To examine variation in the expression of endoderm differentiation markers when human iPS cells were cultured, the cells after differentiation induction were recovered over time, and total RNA fraction was purified using RNeasy96 (Qiagen). cDNA was synthesized using PrimeScriptRT reagent kit (Takara Bio Inc.), quantitative RT-PCR was performed, and the gene expression level of a primitive streak marker Brachyury, and an endoderm marker SOX17 was measured. […]
The level of the gene expression of SOX17 when human iPS cells were cultured was measured over time. […]

human iPS cells [2] = assay: Differentiation of human iPS cells into pancreatic hormone-producing cells on BD Matrigel or fibronectin substrate, time-course expression of differentiation markers; format: cell-based; details: substrate for endoderm induction, 100 mm dish coating diluted 40-fold
Procedure: First, human iPS cells maintained in the state of a cell mass were dissociated until they formed singulated cells in the same manner as in Example 1. Then, human iPS cells dispersed in a medium were seeded at a density of 60×10^4 cells per one 100 mm dish coated with fibronectin (Invitrogen), and cultured at 37° C., 5% CO2 for 1 day. The 100 mm dish used was one coated with fibronectin diluted 40-fold with serum-free DMEM/F12 medium (Invitrogen), at room temperature for 3 hr or longer. (indicated as “fibronectin” in FIG. 7) Human iPS cells dispersed in a medium were seeded at a density of 15×10^4 cells per one 100 mm dish coated with BD Matrigel (Nippon Becton Dickinson Company, Ltd.), and cultured at 37° C., 5% CO2 for 1 day. The 100 mm dish used was one coated with BD Matrigel diluted 40-fold with serum-free DMEM/F12 medium (Invitrogen), at room temperature for 3 hr or longer. (indicated as “Matrigel” in FIG. 7) As a medium for dispersion and seeding was a medium for primate ES cell (ReproCELL Inc.) added with 10 μM Y-27632 (Wako Pure Chemical Industries, Ltd.). One day after seeding, the medium was exchanged with DMEM/F12 medium containing a GSK3β inhibitor CHIR99021 (3 μM) and 2% B-27 supplement (GIBCO) and cultured for 2 days. Then the medium was exchanged with DMEM/F12 medium containing activin A (50 ng/ml) and CHIR99021 (1 μM) and cultured for 2 days.

| Molecule | expression level of SOX17 (relative to GAPDH) (human iPS cells [1]) | time-course variation in the expression of differentiation markers (SOX17, PDX1, NGN3, insulin), compared between substrates (human iPS cells [2]) |
| --- | --- | --- |
| O=C1Nc2cc(Br)ccc2/C1=C1/Nc2ccccc2/C1=N\O [BIO, (2′Z,3′E)-6-bromoindirubin-3′-oxime] | remarkably increased; also recorded: increased over time |  |
| Cc1c[nH]c(-c2cnc(NCCNc3ccc(C#N)cn3)nc2-c2ccc(Cl)cc2Cl)n1 [CHIR99021, 6-[[2-[[4-(2,4-dichlorophenyl)-5-(4-methyl-1H-imidazol-2-yl)-2-pyrimidinyl]amino]ethyl]amino]nicotinonitrile] | remarkably increased; also recorded: increased over time |  |
| fibronectin |  | almost the same |
